In patent US11578084B2, “Condensed ring compounds having dopamine D3 receptor antagonistic effect” (Shionogi & Co., Ltd., priority 2018, dated 2023):
Like-named read-outs stand apart in the source and are kept apart here.

What was measured:
[1] = target: human recombinant dopamine D3 receptor (Homo sapiens (Human), UniProt P35462); assay: Test of binding inhibition for dopamine D3 receptor ([3H]-Methylspiperone SPA); details: Jump-In HEK cell membranes, 2 nM [3H]-Methylspiperone, 120 min at 25° C.; read-out: hD3_Ki
Chain of human recombinant dopamine D3 receptor (P35462 whole entry): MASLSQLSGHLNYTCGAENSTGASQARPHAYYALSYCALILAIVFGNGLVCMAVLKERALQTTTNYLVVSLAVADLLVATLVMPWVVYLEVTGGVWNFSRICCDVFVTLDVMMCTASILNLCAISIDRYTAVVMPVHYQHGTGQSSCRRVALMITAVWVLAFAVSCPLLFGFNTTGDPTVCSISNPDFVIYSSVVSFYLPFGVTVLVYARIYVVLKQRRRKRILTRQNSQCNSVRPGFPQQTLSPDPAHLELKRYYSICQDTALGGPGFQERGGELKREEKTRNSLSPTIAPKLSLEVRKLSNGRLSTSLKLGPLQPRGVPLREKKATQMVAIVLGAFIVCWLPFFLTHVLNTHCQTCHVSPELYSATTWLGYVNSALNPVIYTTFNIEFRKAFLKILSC
Procedure, shortened: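 SPA radioligand binding on Jump-In HEK membranes expressing human D3 receptor (4 µg/well) with 2 nM [3H]-methylspiperone (final), incubated 120 min at 25 °C. Non-specific binding defined with 10 µM butaclamol. Percent inhibition computed against total and non-specific binding; Ki from dose-response curves.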

[2] = target: human ether-a-go-go related gene (hERG) channel (Homo sapiens (Human), UniProt Q12809); assay: hERG test (whole cell patch clamp, IKr); assay type: cell-based; details: 3 μM, CHO cells expressing hERG, tail peak current
Chain of human ether-a-go-go related gene (hERG) channel (Q12809 whole entry): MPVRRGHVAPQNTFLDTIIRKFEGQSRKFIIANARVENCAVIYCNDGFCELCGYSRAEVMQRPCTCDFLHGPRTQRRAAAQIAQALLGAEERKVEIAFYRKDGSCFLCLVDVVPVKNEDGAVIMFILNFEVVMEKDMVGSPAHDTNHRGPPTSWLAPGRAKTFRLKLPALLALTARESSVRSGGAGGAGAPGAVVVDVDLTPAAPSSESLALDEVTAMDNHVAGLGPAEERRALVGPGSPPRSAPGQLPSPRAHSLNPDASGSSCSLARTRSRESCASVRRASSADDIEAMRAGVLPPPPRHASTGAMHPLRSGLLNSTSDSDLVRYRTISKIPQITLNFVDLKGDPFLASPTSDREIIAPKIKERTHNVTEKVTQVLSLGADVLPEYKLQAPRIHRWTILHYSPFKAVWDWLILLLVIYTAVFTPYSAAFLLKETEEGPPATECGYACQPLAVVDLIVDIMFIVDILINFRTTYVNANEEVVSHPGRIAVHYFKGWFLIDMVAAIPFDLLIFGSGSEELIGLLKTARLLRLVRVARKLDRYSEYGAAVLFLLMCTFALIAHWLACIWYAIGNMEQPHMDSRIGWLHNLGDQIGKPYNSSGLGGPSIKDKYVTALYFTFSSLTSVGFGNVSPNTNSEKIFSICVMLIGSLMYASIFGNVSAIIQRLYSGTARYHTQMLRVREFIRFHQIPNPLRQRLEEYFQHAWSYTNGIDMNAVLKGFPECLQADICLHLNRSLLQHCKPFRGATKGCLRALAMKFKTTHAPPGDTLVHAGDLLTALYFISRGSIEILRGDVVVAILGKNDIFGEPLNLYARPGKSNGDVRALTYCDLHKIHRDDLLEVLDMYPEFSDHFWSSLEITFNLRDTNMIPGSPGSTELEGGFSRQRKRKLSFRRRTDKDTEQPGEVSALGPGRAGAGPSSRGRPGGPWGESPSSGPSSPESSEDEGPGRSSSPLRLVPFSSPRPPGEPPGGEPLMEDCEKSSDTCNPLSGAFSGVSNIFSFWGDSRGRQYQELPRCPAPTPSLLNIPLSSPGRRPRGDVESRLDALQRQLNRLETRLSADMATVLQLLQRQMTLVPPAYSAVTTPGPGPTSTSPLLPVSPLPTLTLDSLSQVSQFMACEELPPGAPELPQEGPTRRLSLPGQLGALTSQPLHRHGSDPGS

[3] = target: human recombinant dopamine D2 receptor (Homo sapiens (Human), UniProt P14416); assay: Test of binding inhibition for dopamine D2 receptor ([3H]-Methylspiperone SPA); details: Jump-In HEK cell membranes, read-out: hD2_Ki
Chain of human recombinant dopamine D2 receptor (P14416 whole entry): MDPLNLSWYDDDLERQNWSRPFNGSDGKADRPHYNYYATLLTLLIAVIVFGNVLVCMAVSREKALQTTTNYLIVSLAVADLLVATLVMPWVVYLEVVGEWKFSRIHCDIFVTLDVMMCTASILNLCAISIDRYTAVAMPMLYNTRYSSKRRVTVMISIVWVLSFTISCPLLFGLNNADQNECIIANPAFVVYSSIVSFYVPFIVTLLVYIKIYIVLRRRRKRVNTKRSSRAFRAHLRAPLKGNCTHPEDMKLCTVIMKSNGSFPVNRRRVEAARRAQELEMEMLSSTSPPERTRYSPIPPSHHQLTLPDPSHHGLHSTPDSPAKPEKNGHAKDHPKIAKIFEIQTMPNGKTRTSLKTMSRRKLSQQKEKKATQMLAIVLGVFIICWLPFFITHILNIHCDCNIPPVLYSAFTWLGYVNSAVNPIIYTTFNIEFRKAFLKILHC
Procedure, shortened: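 Incubation was 120 min at 25° C. with human recombinant D2 membranes from Jump-In HEK cells (2 μg/well), WGA SPA beads (0.2 mg/well) and [3H]-Methylspiperone as radioligand.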

[4] = target: hERG channel (IKr) (Homo sapiens (Human), UniProt Q12809); assay: hERG test (whole cell patch clamp, IKr); assay type: cell-based; details: human, CHO cells expressing hERG channel, pH 7.4, 3 μM, tail peak current
Chain of hERG channel (IKr) (Q12809 whole entry): as the sequence (Q12809 whole entry) above

[5] = target: human MDR1-expressing cells (Homo sapiens (Human), UniProt P08183); assay: P-gp substrate test (Transwell, MDR1-expressing cells vs parent cells); assay type: in vitro ADME; details: efflux ratio of MDR1-expressing cells compared with parent cells
Chain of human MDR1-expressing cells (P08183 whole entry): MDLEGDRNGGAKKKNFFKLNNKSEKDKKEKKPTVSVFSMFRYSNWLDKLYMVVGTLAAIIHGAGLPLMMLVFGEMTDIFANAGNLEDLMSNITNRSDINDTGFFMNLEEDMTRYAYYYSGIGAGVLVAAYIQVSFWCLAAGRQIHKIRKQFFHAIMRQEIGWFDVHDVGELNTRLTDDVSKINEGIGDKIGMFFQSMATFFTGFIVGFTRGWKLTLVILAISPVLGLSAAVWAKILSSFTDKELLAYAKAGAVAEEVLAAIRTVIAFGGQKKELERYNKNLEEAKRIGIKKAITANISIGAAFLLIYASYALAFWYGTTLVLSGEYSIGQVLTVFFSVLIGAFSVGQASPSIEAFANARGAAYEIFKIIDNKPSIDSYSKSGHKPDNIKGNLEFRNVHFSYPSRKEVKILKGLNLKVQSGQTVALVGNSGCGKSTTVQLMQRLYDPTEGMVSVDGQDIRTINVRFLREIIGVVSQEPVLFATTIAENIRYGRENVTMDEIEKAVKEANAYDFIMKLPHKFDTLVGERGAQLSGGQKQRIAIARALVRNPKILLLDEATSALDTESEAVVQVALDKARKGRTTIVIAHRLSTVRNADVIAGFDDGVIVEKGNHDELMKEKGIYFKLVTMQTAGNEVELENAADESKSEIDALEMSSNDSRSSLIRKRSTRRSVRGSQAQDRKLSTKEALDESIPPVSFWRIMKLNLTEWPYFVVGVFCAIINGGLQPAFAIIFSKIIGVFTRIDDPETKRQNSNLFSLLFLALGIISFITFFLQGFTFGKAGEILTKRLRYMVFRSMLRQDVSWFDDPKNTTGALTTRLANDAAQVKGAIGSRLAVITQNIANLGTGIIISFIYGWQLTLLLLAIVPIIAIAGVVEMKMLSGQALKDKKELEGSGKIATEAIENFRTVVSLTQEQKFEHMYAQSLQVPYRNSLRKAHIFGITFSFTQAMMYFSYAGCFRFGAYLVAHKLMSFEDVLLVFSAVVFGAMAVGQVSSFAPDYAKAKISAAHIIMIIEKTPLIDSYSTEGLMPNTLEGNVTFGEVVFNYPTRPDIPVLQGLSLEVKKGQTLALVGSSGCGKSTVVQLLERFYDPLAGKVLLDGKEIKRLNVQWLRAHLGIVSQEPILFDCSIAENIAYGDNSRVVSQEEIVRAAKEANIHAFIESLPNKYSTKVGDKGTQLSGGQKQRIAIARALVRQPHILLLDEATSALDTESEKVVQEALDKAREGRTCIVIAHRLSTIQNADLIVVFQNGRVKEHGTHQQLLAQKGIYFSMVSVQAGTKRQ
Method: Test Example 14: P-Gp Substrate Test The compound of the present invention was added to one side of Transwell (registered trademark, CORNING) where human MDR1-expressing cells or parent cells have been monolayer-cultured. The cells were reacted for a constant time. The membrane permeability coefficients from the apical side toward the basolateral side (A→B) and from the basolateral side toward the apical side (B→A) were calculated for the MDR1-expressing cells or the parent cells, and the efflux ratio (ER; ratio of the membrane permeability coefficients of B→A and A→B) values of the MDR1-expressing cells and the parent cells were calculated. The efflux ratio (ER values) of the MDR1-expressing cells and the parent cells were compared to confirm whether or not the compound of the present invention would be a P-gp substrate.

[6] = Solubility test (1% DMSO addition, JP-1 fluid or JP-2 fluid); assay type: physicochemical; details: 25 °C, kinetic from dmso stock
Method: Test Example 11: Solubility Test The solubility of the compound of the present invention was determined under 1% DMSO addition conditions. A 10 mmol/L solution of the compound was prepared with DMSO. 2 μL of the solution of the compound of the present invention was respectively added to 198 μL of JP-1 fluid or JP-2 fluid, or 6 μL of the solution of the compound of the present invention was respectively added to 594 μL of JP-1 fluid or JP-2 fluid. The mixture was left standing for 16 hours at 25° C. (condition 1) or shaking at room temperature for 3 hours (condition 2), and the mixture was vacuum-filtered. The filtrates were diluted 10- or 100-fold with methanol/water=1/[…]) or acetonitrile/methanol/water=1/1/[…]/V), and concentrations in the filtrates were measured by the absolute calibration curve method using LC/MS or solid-phase extraction (SPE)/MS. The dilution rate or dilution solvent was changed as necessary. The composition of the JP-1 fluid was as below. Water was added to 2.0 g of sodium chloride and 7.0 mL of hydrochloric acid to reach 1000 mL. The composition of the JP-2 fluid was as below. Composition 1. 3.40 g of potassium dihydrogen phosphate and 3.55 g of anhydrous disodium hydrogen phosphate were dissolved in water to reach 1000 mL. Composition 2. 1 volume of water was added to 1 volume of the solution in which 3.40 g of potassium dihydrogen phosphate and 3.55 g of anhydrous disodium hydrogen phosphate were dissolved in water to reach 1000 mL.

[7] = 1.2 nM [3H]-Methylspiperone, 120 min at 25° C.
[8] = pH 1.2, simulated gastric fluid, JP-1 fluid, read-out: Solubility JP-1
[9] = pH 6.8, aqueous buffer, JP-2 fluid, read-out: Solubility JP-2

| SMILES | Ki [1] [nM] | hERG inhibition(%) at 3 μM [2] [%] | Ki [3, 7] [nM] | inhibition at 3 µM [4] [%] | P-gp ER ratio [5] | Ki ([3]; [3H]-Methylspiperone 1.2 nM) [nM] | solubility [6, 8] [µM] | solubility [6, 9] [µM] |
| --- | --- | --- | --- | --- | --- | --- | --- | --- |
| CC(Oc1nc2c(s1)CCN(CC[C@H]1CC[C@H](NC(=O)c3cccc4nn(C)cc34)CC1)CC2)C(F)F (single isomer, unassigned) [Example I-119] | 0.11 | 23.1 | 1200 |  |  |  |  |  |
| Cn1ncc(CC(=O)N[C@H]2CC[C@H](CCN3CCc4sc(OCC(C)(F)F)nc4C3)CC2)n1 [Example I-005] | 0.63 |  | 720 | 15.3 | 1.5 |  |  |  |
| Cn1ncc(CC(=O)N[C@H]2CC[C@](F)(CCN3CCc4ccc(OCC(F)F)nc4CC3)CC2)n1 [Example I-031] | 0.19 |  | 800 | 23.8 | 1.5 |  |  |  |
| Cn1cc2c(C(=O)NC34CCC(CCN5CCc6nc(OCC(F)(F)F)sc6CC5)(CC3)OC4)cccc2n1 [II-11] | 0.23 |  |  |  |  | > 2300 | > 50 | > 50 |
| Cc1ncc(OCC(=O)NC23CCC(CCN4CCc5nc(OCC(F)(F)F)sc5CC4)(CC2)OC3)cn1 [II-12] | 0.49 |  |  |  |  | 1500 | > 50 | > 50 |
| Cn1ncc(CC(=O)N[C@H]2CC[C@](F)(CCN3CCc4nc(OCC(C)(F)F)sc4CC3)CC2)n1 [I′-39] | 0.49 |  |  | 17.3 | 1.9 | 960 |  |  |
